Results as given in patent US12404241B2 (Celgene Corporation, priority 2018, dated 2025).
Structures can show the parent of a compound that is named as a salt.

Target: T1, AR (Homo sapiens, UniProt P10275)
T1 construct: endogenous in cells; host or cells: VCaP cells
T1 sequence (P10275 1-920): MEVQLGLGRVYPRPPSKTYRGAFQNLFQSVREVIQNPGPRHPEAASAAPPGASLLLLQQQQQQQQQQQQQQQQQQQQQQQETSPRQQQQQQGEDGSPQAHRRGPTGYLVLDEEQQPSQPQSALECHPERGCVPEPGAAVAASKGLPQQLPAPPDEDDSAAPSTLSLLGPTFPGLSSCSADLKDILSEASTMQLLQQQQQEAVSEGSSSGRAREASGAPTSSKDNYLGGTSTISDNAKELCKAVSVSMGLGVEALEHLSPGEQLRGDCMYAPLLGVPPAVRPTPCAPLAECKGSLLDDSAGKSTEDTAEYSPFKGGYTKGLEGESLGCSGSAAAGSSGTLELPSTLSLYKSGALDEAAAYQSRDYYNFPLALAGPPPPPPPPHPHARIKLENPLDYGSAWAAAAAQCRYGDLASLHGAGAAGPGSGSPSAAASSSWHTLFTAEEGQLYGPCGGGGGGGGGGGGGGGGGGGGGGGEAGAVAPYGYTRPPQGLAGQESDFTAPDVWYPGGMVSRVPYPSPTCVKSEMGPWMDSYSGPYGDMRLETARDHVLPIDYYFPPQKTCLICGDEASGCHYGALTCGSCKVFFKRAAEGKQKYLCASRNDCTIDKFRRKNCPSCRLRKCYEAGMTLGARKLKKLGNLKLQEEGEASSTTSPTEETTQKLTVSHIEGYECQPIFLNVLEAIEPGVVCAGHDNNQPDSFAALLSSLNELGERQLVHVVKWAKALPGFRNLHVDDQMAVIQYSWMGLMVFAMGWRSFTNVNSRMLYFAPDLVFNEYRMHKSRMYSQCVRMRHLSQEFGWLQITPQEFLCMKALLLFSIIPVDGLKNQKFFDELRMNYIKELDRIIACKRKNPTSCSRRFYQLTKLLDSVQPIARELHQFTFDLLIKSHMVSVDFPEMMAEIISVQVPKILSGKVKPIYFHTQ
Assay: VCAP AR Degradation Assay
Assay type: cell-based
Details: for Y (AR degradation efficiency, % of DMSO control): class symbols *; for DC50: class symbols A-C, read-out: DC50
In short: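 24 h, 37 °C, VCaP (DMEM/8% FBS), 10-pt 1:3 dilutions from 5 μM final top, 0.1% DMSO ctrl. Lysis on ice/4 °C 1 h; total AR by sandwich ELISA, normalized to DMSO. 4PL fit → DC50, EC50, Y (min AR level).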

Row | SMILES | Y (AR degradation efficiency, % of DMSO control) | DC50 [nM]
1 | CC(C)c1cc(N2C(=S)N(c3ccc(C#N)c(Cl)c3)C(=O)C2(C)C)ccc1OCCN1C[C@@H](C)N(CC(=O)Nc2cc(F)cc(NC3CCC(=O)NC3=O)c2)[C@@H](C)C1 (stereo partly drawn) [Example 251, 2-((2S,6R)-4-(2-(4-(3-(3-chloro-4-cyanophenyl)-5,5-dimethyl-4-oxo-2-thioxoimidazolidin-1-yl)-2-isopropylphenoxy)ethyl)-2,6-dimethylpiperazin-1-yl)-N-(3-(2,6-dioxopiperidin-3-ylamino)-5-fluorophenyl)acetamide] | * (0<Y<=25%) | < 100
2 | CC(C)c1cc(N2C(=S)N(c3ccc(C#N)c(C(F)(F)F)c3)C(=O)C23CCC3)cnc1OCCN1C[C@@H](C)N(CC(=O)Nc2cccc(NC3CCC(=O)NC3=O)c2)[C@@H](C)C1 (stereo partly drawn) [Example 227, 2-((2S,6R)-4-(2-(5-(7-(4-cyano-3-(trifluoromethyl)phenyl)-8-oxo-6-thioxo-5,7-diazaspiro[3.4]octan-5-yl)-3-isopropylpyridin-2-yloxy)ethyl)-2,6-dimethylpiperazin-1-yl)-N-(3-(2,6-dioxopiperidin-3-ylamino)phenyl)acetamide] | * (0<Y<=25%) | < 100
3 | N#Cc1ccc(N2C(=O)C3(CCOC3)N(c3ccc(OCCN4CCN(CC(=O)Nc5cc(Cl)cc(NC6CCC(=O)NC6=O)c5)CC4)c(F)c3)C2=S)cc1C(F)(F)F (single isomer, unassigned) [Example 54, N-(3-chloro-5-(2,6-dioxopiperidin-3-ylamino)phenyl)-2-(4-(2-(4-(3-(4-cyano-3-(trifluoromethyl)phenyl)-4-oxo-2-thioxo-7-oxa-1,3-diazaspiro[4.4]nonan-1-yl)-2-fluorophenoxy)ethyl)piperazin-1-yl)acetamide] | * (0<Y<=25%) | < 100
4 | CC(C)c1cc(N2C(=S)N(c3ccc(C#N)c(C(F)(F)F)c3)C(=O)C2(C)C)ccc1OCCN1C[C@@H](C)N(CC(=O)Nc2cccc(NC3CCC(=O)NC3=O)c2)C[C@H]1C (stereo partly drawn) [Example 193, 2-((2R,5R)-4-(2-(4-(3-(4-cyano-3-(trifluoromethyl)phenyl)-5,5-dimethyl-4-oxo-2-thioxoimidazolidin-1-yl)-2-isopropylphenoxy)ethyl)-2,5-dimethylpiperazin-1-yl)-N-(3-(2,6-dioxopiperidin-3-ylamino)phenyl)acetamide] | ** (25%<Y<=35%) | 100 to 500
5 | CCc1cc(N2C(=S)N(c3ccc(C#N)c(C(F)(F)F)c3)C(=O)C2(C)C)ccc1OCCN1C[C@H](C)N(CC(=O)Nc2cc(Cl)cc(NC3CCC(=O)NC3=O)c2)C[C@H]1C (stereo partly drawn) [Example 124, N-(3-chloro-5-(2,6-dioxopiperidin-3-ylamino)phenyl)-2-((2S,5R)-4-(2-(4-(3-(4-cyano-3-(trifluoromethyl)phenyl)-5,5-dimethyl-4-oxo-2-thioxoimidazolidin-1-yl)-2-ethylphenoxy)ethyl)-2,5-dimethylpiperazin-1-yl)acetamide] | * (0<Y<=25%) | 100 to 500
6 | CCc1cc(N2C(=S)N(c3ccc(C#N)c(C(F)(F)F)c3)C(=O)C2(C)C)ccc1OCCN1CCN(CC(=O)Nc2cccc(NC3CCC(=O)NC3=O)c2)[C@@H](CO)C1 (some centres unmarked) [Example 51] | *** (35%<Y<50%) | 100 to 500
7 | CCc1cc(N2C(=S)N(c3ccc(C#N)c(C(F)(F)F)c3)C(=O)C2(C)C)ccc1OCCN1C[C@@H](C)N(CC(=O)Nc2cc(C#N)cc(NC3CCC(=O)NC3=O)c2)[C@@H](C)C1 (stereo partly drawn) [Example 186, 2-((2S,6R)-4-(2-(4-(3-(4-cyano-3-(trifluoromethyl)phenyl)-5,5-dimethyl-4-oxo-2-thioxoimidazolidin-1-yl)-2-ethylphenoxy)ethyl)-2,6-dimethylpiperazin-1-yl)-N-(3-cyano-5-(2,6-dioxopiperidin-3-ylamino)phenyl)acetamide] | * (0<Y<=25%) | < 100
8 | CC(C)c1cc(N2C(=S)N(c3ccc(C#N)c(C(F)(F)F)c3)C(=O)C2(C)C)ccc1OCCN1C[C@@H](C)N(CC(=O)Nc2cccc(NC3CCC(=O)NC3=O)c2)[C@@H](C)C1 (stereo partly drawn) [Example 170, 2-((2S,6R)-4-(2-(4-(3-(4-cyano-3-(trifluoromethyl)phenyl)-5,5-dimethyl-4-oxo-2-thioxoimidazolidin-1-yl)-2-isopropylphenoxy)ethyl)-2,6-dimethylpiperazin-1-yl)-N-(3-(2,6-dioxopiperidin-3-ylamino)phenyl)acetamide] | * (0<Y<=25%) | < 100
9 | CC1(C)C(=O)N(c2cnc(C#N)c(C(F)(F)F)c2)C(=S)N1c1ccc(OCCN2CCN(CC(=O)Nc3cc(Cl)cc(NC4CCC(=O)NC4=O)c3)CC2)c(Cl)c1 (centres unmarked) [Example 14, hydrochloride] | * (0<Y<=25%) | < 100
10 | CC(C)c1cc(N2C(=S)N(c3ccc(C#N)c(C(F)(F)F)c3)C(=O)C2(C)C)ccc1OCCN1CCN(C2(C(=O)Nc3cccc(NC4CCC(=O)NC4=O)c3)CC2)CC1 (centres unmarked) [Example 197] | *** (35%<Y<50%) | 100 to 500
11 | CCc1cc(N2C(=S)N(c3ccc(C#N)c(C(F)(F)F)c3)C(=O)C2(C)C)ccc1OCCN1CCN(CC(=O)Nc2cc(NC3CCC(=O)NC3=O)cc(F)c2F)CC1 (centres unmarked) [Example 70, 2-(4-(2-(4-(3-(4-cyano-3-(trifluoromethyl)phenyl)-5,5-dimethyl-4-oxo-2-thioxoimidazolidin-1-yl)-2-ethylphenoxy)ethyl)piperazin-1-yl)-N-(5-(2,6-dioxopiperidin-3-ylamino)-2,3-difluorophenyl)acetamide] | * (0<Y<=25%) | < 100
12 | C[C@@H]1CN(CCOc2ccc(N3C(=S)N(c4cnc(C#N)c(C(F)(F)F)c4)C(=O)C3(C)C)cc2CCF)CCN1CC(=O)Nc1cccc(NC2CCC(=O)NC2=O)c1 (stereo partly drawn) [Example 166, 2-((R)-4-(2-(4-(3-(6-cyano-5-(trifluoromethyl)pyridin-3-yl)-5,5-dimethyl-4-oxo-2-thioxoimidazolidin-1-yl)-2-(2-fluoroethyl)phenoxy)ethyl)-2-methylpiperazin-1-yl)-N-(3-(2,6-dioxopiperidin-3-ylamino)phenyl)acetamide] | * (0<Y<=25%) | < 100
13 | CC1(C)C(=O)N(c2ccc(C#N)c(C(F)(F)F)c2)C(=S)N1c1ccc(OCCN2CCN(CC(=O)Nc3cccc(NC4CCC(=O)NC4=O)c3)CC2)c(C(F)(F)F)c1 (centres unmarked) [Example 12, hydrochloride] | *** (35%<Y<50%) | 100 to 500
14 | CCc1cc(N2C(=S)N(c3ccc(C#N)c(C(F)(F)F)c3)C(=O)C2(C)C)ccc1CCCN1C[C@@H](C)N(CC(=O)Nc2cccc(NC3CCC(=O)NC3=O)c2)[C@@H](C)C1 (stereo partly drawn) [Example 284, 2-((2R,6S)-4-(3-(4-(3-(4-cyano-3-(trifluoromethyl)phenyl)-5,5-dimethyl-4-oxo-2-thioxoimidazolidin-1-yl)-2-ethylphenyl)propyl)-2,6-dimethylpiperazin-1-yl)-N-(3-(2,6-dioxopiperidin-3-ylamino)phenyl)acetamide] | * (0<Y<=25%) | < 100
15 | CC(C)c1cc(N2C(=S)N(c3ccc(C#N)c(C(F)(F)F)c3)C(=O)C2(C)C)ccc1OCCN1CCN(CC(=O)Nc2cccc(NC3CCC(=O)NC3=O)c2)[C@H](C)C1 (stereo partly drawn) [Example 162, 2-((R)-4-(2-(4-(3-(4-cyano-3-(trifluoromethyl)phenyl)-5,5-dimethyl-4-oxo-2-thioxoimidazolidin-1-yl)-2-isopropylphenoxy)ethyl)-2-methylpiperazin-1-yl)-N-(3-(2,6-dioxopiperidin-3-ylamino)phenyl)acetamide] | ** (25%<Y<=35%) | 100 to 500
16 | CCc1cc(N2C(=S)N(c3cnc(C#N)c(C(F)(F)F)c3)C(=O)C2(C)C)ccc1OCCN1CCN([C@H](C)C(=O)Nc2cc(F)cc(NC3CCC(=O)NC3=O)c2)CC1 (stereo partly drawn) [Example 117, (2R)-2-(4-(2-(4-(3-(6-cyano-5-(trifluoromethyl)pyridin-3-yl)-5,5-dimethyl-4-oxo-2-thioxoimidazolidin-1-yl)-2-ethylphenoxy)ethyl)piperazin-1-yl)-N-(3-(2,6-dioxopiperidin-3-ylamino)-5-fluorophenyl)propanamide] | * (0<Y<=25%) | < 100
